Target: T1, human α7 nAChR (Homo sapiens, UniProt P36544)
T1 construct: expressed in transfected cells; host or cells: GH4C1 cells (rat pituitary, ATCC CCL-82.2)
Test: Evaluation of PAM activity with human α7 nACh receptor stably expressing cells (aequorin luminescence, FDSS7000, ACh EC20)
Format: cell-based
Details: statement on Table 8 data
From the text: Evaluation of PAM Activity with Human α7 nACh Receptor Stably Expressing Cells
(1) Human α7 nAChR Stably Expressing Cells
Human α7 nAChR stably expressing cells were generated and cultured. In detail, GH4C1 cells derived from rat pituitary (cat#CCL-82.2, ATCC, USA) were used as a host cell. PcDNA3.1Zeo vector containing a nucleotide sequence encoding a protein GenBank BAC81731 and pcDNA3.1 vector containing human α7 nAChR gene (cat#V790-20, invitrogen, Carlsbad, Calif., USA) were transfected to the cells to give aequorins and human α7 nAChR stably expressing cells respectively. The aequorins and human α7 nAChR stably expressing cells were screened with Zeocin (cat#R25001, invitrogen, Carlsbad, Calif., USA) and Geneticin (cat#10131-027, invitrogen, Carlsbad, Calif., USA) respectively.
The cells were cultured in F-10 Nutrient Mixture (Ham) medium (cat#11550-043, invitrogen, Carlsbad, Calif., USA) containing 2.5% fetal bovine serum (cat#2917354, ICN Biomedicals, Inc, USA), 15% inactivated horse serum (cat#26050-088, invitrogen, Carlsbad, Calif., USA), 1 μg/mL Geneticin, and 5 μg/mL Puromycin (cat#14861-84, invitrogen, Carlsbad, Calif., USA), in a Collagen Type 1-coated dish (cat#4030-010, iwaki, Tokyo, Japan). During the culture, the medium was replaced with fresh medium in every 2 to 3 days, and the cells were treated with TrypLE Express (cat#45604-021, invitrogen, Carlsbad, Calif., USA) to collect them in every 7 days. Thus, the cells were subcultured.
7 Days after subculturing, the cells were treated with TrypLE Express to collect them when they were about 80% confluent. The cells were suspended in a reaction medium containing Hanks (cat#14065-056, invitrogen, Carlsbad, Calif., USA)/20 mmol/L Hepes (cat#15630-080, invitrogen, Carlsbad, Calif., USA), Buffer (pH 7.4), F-10 Nutrient Mixture (Ham), and 0.1 mg/mL Geneticin, and the suspension was seeded in a 384-well plate (cat#781090, Greiner, Germany) at 20000 cells/25 μL per well.
On the next day after seeding, Viviren (cat#E649X, Promega, Madison, Wis., USA) was added to the medium so that the final concentration could be 4 μmol/L (15 μL/well). The plates were centrifuged and then placed in the dark for 4 hours at room temperature.
(2) Preparation of the Test Samples
Each of the test compounds was dissolved in DMSO to prepare each test sample at a concentration of 1000-fold the final concentration. To the solution was added Hanks/20 mM HEPES/0.2% BSA (cat#A3803, Sigma, St. Louis, Mo., USA), and the concentration was adjusted to 6-fold the final concentration.
(3) Evaluation of PAM Activity
FDSS7000 (Hamamatsu Photonics) was used to detect the luminescence signal evoked by α7 nAChR stimulation. The cells and a luminescent substrate were put on a plate, and the test sample was added thereto. […] After the addition of ACh, the luminescence signal (the central wavelength: 465 nm) was measured for 138 seconds to calculate RLU (Max-Min). The ratio of the RLU (Max-Min) of the test-compound-containing wells to that of the control wells was defined as PAM activity.

T1 sequence (P36544 23-502): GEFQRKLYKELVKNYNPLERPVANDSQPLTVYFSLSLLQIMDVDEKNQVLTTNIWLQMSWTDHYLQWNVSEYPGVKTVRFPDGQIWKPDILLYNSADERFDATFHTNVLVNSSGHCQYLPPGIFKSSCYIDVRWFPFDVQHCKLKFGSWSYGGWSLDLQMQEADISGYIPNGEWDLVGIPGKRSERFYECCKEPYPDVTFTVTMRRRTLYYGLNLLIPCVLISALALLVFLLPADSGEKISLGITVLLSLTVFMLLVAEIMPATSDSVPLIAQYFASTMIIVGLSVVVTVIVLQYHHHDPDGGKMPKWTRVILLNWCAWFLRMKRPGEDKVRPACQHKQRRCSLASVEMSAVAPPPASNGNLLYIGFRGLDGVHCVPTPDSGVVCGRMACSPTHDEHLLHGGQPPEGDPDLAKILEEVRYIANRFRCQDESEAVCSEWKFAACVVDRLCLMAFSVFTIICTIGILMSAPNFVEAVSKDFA

SMILES | PAM activity for α7 nAChR (in words)
CCc1ccc2c(cnn2[C@H]2CC[C@@H](NC(=O)C3CCC(F)(F)CC3)CC2)c1 [Example 4, N-(cis-4-(5-ethyl-1H-indazol-1-yl)cyclohexyl)-4,4-difluorocyclohexanecarboxamide] | stronger PAM activity than others
Cc1ccc2c(cnn2C2CCN(C(=O)NC3CCCCC3)CC2)c1 [Example 8, N-cyclohexyl-4-(5-methyl-1H-indazol-1-yl)piperidine-1-carboxamide] | stronger PAM activity than others
Cc1ccc2c(cnn2C2CCN(C(=O)NC3CCC(F)(F)CC3)CC2)c1 [Example 13, N-(4,4-difluorocyclohexyl)-4-(5-methyl-1H-indazol-1-yl)piperidine-1-carboxamide] | stronger PAM activity than others
CCOc1ccc2c(cnn2C2CCN(C(=O)NC3CCCC3)CC2)c1 [Example 17] | stronger PAM activity than others
CCOc1ccc2c(cnn2C2CCN(C(=O)NC3CCCCC3)CC2)c1 [Example 18, N-cyclohexyl-4-(5-ethoxy-1H-indazol-1-yl)piperidine-1-carboxamide] | stronger PAM activity than others
CCc1ccc2c(cnn2C2CCN(C(=O)NC3CCCC3)CC2)c1 [Example 20] | stronger PAM activity than others
CCc1ccc2c(cnn2C2CCN(C(=O)NC3CCC(F)(F)CC3)CC2)c1 [Example 23] | stronger PAM activity than others
COc1ccc2c(cnn2C2CCN(C(=O)NC3CCCCC3)CC2)c1 [Example 40] | stronger PAM activity than others
COc1ccc2c(cnn2C2CCN(C(=O)NC3CCC(F)(F)CC3)CC2)c1 [Example 41, N-(4,4-difluorocyclohexyl)-4-(5-methoxy-1H-indazol-1-yl)piperidine-1-carboxamide] | stronger PAM activity than others

More lines, now with the values ahead:

PAM activity for α7 nAChR (in words) | SMILES
stronger PAM activity than others | CCc1ccc2c(cnn2[C@H]2CC[C@@H](NC(=O)C3CCCCC3)CC2)c1 [Example 119]
stronger PAM activity than others | COCC1CCC(NC(=O)N2CCC(n3ncc4cc(C)ccc43)CC2)CC1 (stereo not drawn) [Example 220]

Same assay, conditions: test compound 10 μmol/L; ACh at EC20; ratio of RLU (Max-Min) of test-compound wells to control wells

SMILES | α7PAM (%) @ 10 μmol/L
CCc1ccc2c(cnn2[C@H]2CC[C@@H](NC(=O)C3CCC(F)(F)CC3)CC2)c1 [Example 4, N-(cis-4-(5-ethyl-1H-indazol-1-yl)cyclohexyl)-4,4-difluorocyclohexanecarboxamide] | 2344%
CCc1ccc2c(cnn2[C@H]2CC[C@@H](NC(=O)NC3CCC(F)(F)CC3)CC2)c1 [Example 5, 1-(4,4-difluorocyclohexyl)-3-(cis-4-(5-ethyl-1H-indazol-1-yl)cyclohexyl)urea] | 1368%
Cc1ccc2c(cnn2C2CCN(C(=O)NC3CCCCC3)CC2)c1 [Example 8, N-cyclohexyl-4-(5-methyl-1H-indazol-1-yl)piperidine-1-carboxamide] | 3053%
Cc1ccc2c(cnn2C2CCN(C(=O)NC3CCC(F)(F)CC3)CC2)c1 [Example 13, N-(4,4-difluorocyclohexyl)-4-(5-methyl-1H-indazol-1-yl)piperidine-1-carboxamide] | 3399%
CCCc1ccc2c(cnn2C2CCN(C(=O)NC3CCOCC3)CC2)c1 [Example 15, 4-(5-propyl-1H-indazol-1-yl)-N-(tetrahydro-2H-pyran-4-yl)piperidine-1-carboxamide] | 1025%
CCc1ccc2c(cnn2C2CCN(C(=O)N[C@H]3CC[C@H](OC)CC3)CC2)c1 [Example 16, 4-(5-ethyl-1H-indazol-1-yl)-N-(trans-4-methoxycyclohexyl)piperidine-1-carboxamide] | 1764%
CCOc1ccc2c(cnn2C2CCN(C(=O)NC3CCCCC3)CC2)c1 [Example 18, N-cyclohexyl-4-(5-ethoxy-1H-indazol-1-yl)piperidine-1-carboxamide] | 6779%
CCc1ccc2c(cnn2C2CCN(C(=O)NC3CCCOC3)CC2)c1 (stereo not drawn) [Example 22, 4-(5-ethyl-1H-indazol-1-yl)-N-(tetrahydro-2H-pyran-3-yl)piperidine-1-carboxamide] | 1425%
CCc1ccc2c(cnn2C2CCN(C(=O)NC3CCC(F)(F)CC3)CC2)c1 [Example 23] | 6196%
CCOc1ccc2c(cnn2C2CCN(C(=O)NC3CCC(F)(F)CC3)CC2)c1 [Example 27, N-(4,4-difluorocyclohexyl)-4-(5-ethoxy-1H-indazol-1-yl)piperidine-1-carboxamide] | 1673%
COCCCc1ccc2c(cnn2C2CCN(C(=O)N[C@H]3CC[C@H](OC)CC3)CC2)c1 [Example 32] | 430%
COc1ccc2c(cnn2C2CCN(C(=O)NC3CCC(F)(F)CC3)CC2)c1 [Example 41, N-(4,4-difluorocyclohexyl)-4-(5-methoxy-1H-indazol-1-yl)piperidine-1-carboxamide] | 3749%
Cc1ccc2c(c1)c(C)nn2C1CCN(C(=O)NC2CCC(F)(F)CC2)CC1 [Example 45, N-(4,4-difluorocyclohexyl)-4-(3,5-dimethyl-1H-indazol-1-yl)piperidine-1-carboxamide] | 1576%
CC(C)Oc1ccc2c(cnn2C2CCN(C(=O)NC3CCCCC3)CC2)c1 [Example 48, N-cyclohexyl-4-(5-isopropoxy-1H-indazol-1-yl)piperidine-1-carboxamide] | 1202%
CCc1cccc2c1cnn2C1CCN(C(=O)NC2CCC(F)(F)CC2)CC1 [Example 64, N-(4,4-difluorocyclohexyl)-4-(4-ethyl-1H-indazol-1-yl)piperidine-1-carboxamide] | 1133%

Second part, the molecule after the results:

α7PAM (%) @ 10 μmol/L | SMILES
430% | COCc1nn(C2CCN(C(=O)NC3CCCCC3)CC2)c2ccc(C)cc12 [Example 68]
420% | CCCc1ccc2c(cnn2C2CCN(C(=O)NC3CCC(OC)CC3)CC2)c1 (stereo not drawn) [Example 76]
1064% | Cc1ccc2c(cnn2C2CCN(C(=O)N[C@H]3CCCCC3(F)F)CC2)c1 [Example 79, (S)—N-(2,2-difluorocyclohexyl)-4-(5-methyl-1H-indazol-1-yl)piperidine-1-carboxamide]
1033% | Cc1ccc2c(cnn2C2CCN(C(=O)N[C@H]3CCCC3(F)F)CC2)c1 [Example 80, (S)—N-(2,2-difluorocyclopentyl)-4-(5-methyl-1H-indazol-1-yl)piperidine-1-carboxamide]
420% | Cc1ccc2c(cnn2C2CCN(C(=O)NC3CCC(OCC(F)(F)F)CC3)CC2)c1 (stereo not drawn) [Example 83]
1467% | CCO[C@H]1CC[C@H](NC(=O)N2CCC(n3ncc4cc(C)ccc43)CC2)CC1 [Example 90, N-(trans-4-ethoxycyclohexyl)-4-(5-methyl-1H-indazol-1-yl)piperidine-1-carboxamide]
89% | COC1CCC(NC(=O)N2CCC(n3ncc4c(Br)cccc43)CC2)CC1 (stereo not drawn) [Example 98]
190% | O=C(C1CCOCC1)N1CCC(n2ncc3cc(F)ccc32)CC1 [Example 104]
410% | CCc1ccc2c(cnn2C2CCN(C(=O)C3CCOCC3)CC2)c1 [Example 111]
410% | CCc1ccc2c(cnn2[C@H]2CC[C@@H](NC(=O)[C@H]3CC[C@H](OC)CC3)CC2)c1 [Example 122]
210% | CO[C@H]1CC[C@H](NC(=O)N2CCC(n3ncc4cc(-c5ccc(F)cc5)ccc43)CC2)CC1 [Example 155]
200% | CCOc1cccc2c1cnn2C1CCN(C(=O)N[C@H]2CC[C@@H](OC)CC2)CC1 [Example 184]
220% | O=C(Nc1ccc(C(F)(F)F)nc1)N1CCC(n2ncc3cc(C4CC4)ccc32)CC1 [Example 187]
370% | O=C(NC1CCC(F)(F)CC1)N1CCC(n2ncc3c(OC(F)F)cccc32)CC1 [Example 201]
1034% | CO[C@H]1CCC[C@H](NC(=O)N2CCC(n3ncc4cc(C5CC5)ccc43)CC2)C1 [Example 211, 4-(5-cyclopropyl-1H-indazol-1-yl)-N-[(1S,3S)-3-methoxycyclohexyl]piperidine-1-carboxamide]
800% | COCc1c(C)ccc2c1cnn2C1CCN(C(=O)NC2CCC(F)(F)CC2)CC1 [Example 213]
480% | CO[C@H]1CC[C@H](NC(=O)N2CCC(n3ncc4c(C)c(C)ccc43)CC2)CC1 [Example 225]
860% | COC(C)c1c(C)ccc2c1cnn2C1CCN(C(=O)NC2CCC(F)(F)CC2)CC1 (stereo not drawn) [Example 232]
1463% | O=C(NC1CCC(F)(F)CC1)N1CCC(n2ncc3cc(OC4CC4)ccc32)CC1 [Example 249, 4-[5-(cyclopropoxy)-1H-indazol-1-yl]-N-(4,4-difluorocyclohexyl)piperidine-1-carboxamide]
